The values that follow come from US20250041245A1, “ENDOXIFEN FOR TREATMENT OF CANCERS” (Atossa Therapeutics, Inc., priority 2021, published 2025).

SMILES strings stand for the structures. Values joined by “and” are separate entries in the source; they are usually repeats but may differ in a detail not shown here. Equal entries are not always repeated. “Also recorded” adds a separate entry of the source.

In general, IC50 refers to the concentration needed to halve the response being measured.

Common to all, as to type: cell-based, human
The test system of assay [1] is patient-derived tumor organoids (PDTOs), endometrial carcinoma. The experiment in a line: Endoxifen screen in PDTOs: endometrial carcinoma. Also noted: key to Personalization Category: Personalization categories range from High, Good, Moderate, Low, to None; Personalization categories range from High, Good, Moderate, Low, to None; Personalization categories range from High, Good, Moderate, Low, to None; Personalization categories range from High, Good, Moderate, Low, to None; Personalization categories range from High, Good, Moderate, Low, to None; key to Sensitivity Category: Sensitivity categories range from High, Good, Moderate, Low, to None; Sensitivity categories range from High, Good, Moderate, Low, to None; Sensitivity categories range from High, Good, Moderate, Low, to None; Sensitivity categories range from High, Good, Moderate, Low, to None; Sensitivity categories range from High, Good, Moderate, Low, to None; AUC: unit not given beside the values. The method, then:
(§1) This example describes screening endoxifen in patient-derived tumor organoids. Endoxifen was tested as a single agent on tumor organoids derived from patients diagnosed with various cancer types using a personalized cancer treatment screening assay (PARIS© Test, SEngine Precision Medicine). The screen utilized patient-derived tumor organoids (PDTOs) along with high-throughput drug screening and machine learning-guided data analysis to quantify the efficacy of endoxifen against samples derived from individual patients diagnosed with various cancer types. PDTOs are self-organizing, three-dimensional organoid structures that recapitulate structural, functional, and genomic aspects of in vivo organs. The PDTOs were grown in culture from patient tumor biopsy samples.
(§2) Fresh patient biopsy samples received following surgery were cleaned and purified. Immune cells (e.g., lymphocytes, blood cells), cancer-associated fibroblasts, and other non-tumor cells were removed to establish pure PDTOs for endoxifen testing. The tumor organoids were grown and expanded by supplying organ- and patient-specific growth factors and nutrients. The PDTOs were treated with increasing concentrations of endoxifen ranging from about 30 nM to about 10 μM, and the drug response was measured using a luminescence readout. A lower luminescence was indicative of a stronger drug response.
(§3) The results were analyzed using a “SEngine Precision Medicine” (SPM) scoring system to assess the sensitivity and personalization of each tumor organoid to endoxifen. […]
This example describes testing endoxifen efficacy against 17 distinct cancer types in patient-derived tumor organoids (PDTOs). […] For each PDTO sample, the drug response was measured using a luminescent readout over a range of endoxifen concentrations. The drug response was evaluated based on the area under the fitted dose response curve (AUC) and the SPM scoring system. […] The area under the curve was calculated from the normalized curve. […] The SPM scores were based on machine learning models that incorporate values for how well the drug kill patient cells (sensitivity metric), the relative drug responses of a patient to all other patients in a sample database (personalization metric), and knowledge of clinical outcomes for patients that had been evaluated with the personalized cancer screening assay (PARIS® Test, SEngine Precision Medicine).
(§4) The SPM scoring system evaluated whether a PDTO was unresponsive or responsive to endoxifen and the degree of drug response for PDTOs that were responsive to endoxifen. […] The sensitivity category was determined from the sensitivity metric and is a measure of overall cell death of a patient's cells in response to endoxifen at six concentrations. […]

The subject of assay [2] is patient-derived tumor organoids (PDTOs), cholangiocarcinoma. The experiment in a line: Endoxifen screen in PDTOs: cholangiocarcinoma. To be noted: each line one patient sample; for IC50: four-parameter logistic fit. Also noted: key to Personalization Category: Personalization categories range from High, Good, Moderate, Low, to None; Personalization categories range from High, Good, Moderate, Low, to None; Personalization categories range from High, Good, Moderate, Low, to None; Personalization categories range from High, Good, Moderate, Low, to None; Personalization categories range from High, Good, Moderate, Low, to None; key to Sensitivity Category: Sensitivity categories range from High, Good, Moderate, Low, to None; Sensitivity categories range from High, Good, Moderate, Low, to None; Sensitivity categories range from High, Good, Moderate, Low, to None; Sensitivity categories range from High, Good, Moderate, Low, to None; Sensitivity categories range from High, Good, Moderate, Low, to None; AUC: unit not given beside the values. The method, then: as §1, §2
(§5) The results were analyzed using a “SEngine Precision Medicine” (SPM) scoring system to assess the sensitivity and personalization of each tumor organoid to endoxifen. The SPM score correlates with clinical outcomes, such that a higher SPM score for a specific PDTO-drug combination predicts a more favorable clinical outcome following treatment of the corresponding patient with the tested drug.
(§6) This example describes testing endoxifen efficacy against 17 distinct cancer types in patient-derived tumor organoids (PDTOs). Screening of PDTOs was performed as described in EXAMPLE 1. For each PDTO sample, the drug response was measured using a luminescent readout over a range of endoxifen concentrations. The drug response was evaluated based on the area under the fitted dose response curve (AUC) and the SPM scoring system. AUC values were normalized for each PDTO. Briefly, data points at each drug concentration were first normalized to a negative control, then a dose response drug curve was approximated using a four-parameter logistic model fitted to the normalized data points. The area under the curve was calculated from the normalized curve. Normalization allowed for comparison of AUC values between patient samples. The SPM scores were based on machine learning models that incorporate values for how well the drug kill patient cells (sensitivity metric), the relative drug responses of a patient to all other patients in a sample database (personalization metric), and knowledge of clinical outcomes for patients that had been evaluated with the personalized cancer screening assay (PARIS® Test, SEngine Precision Medicine).
The SPM scoring system evaluated whether a PDTO was unresponsive or responsive to endoxifen and the degree of drug response for PDTOs that were responsive to endoxifen. The SPM scoring system generated metrics an SPM score, predictive of clinical outcome, overall drug response (response category), drug sensitivity (sensitivity category), and drug personalization (personalization category). SPM scores ranged from 1-15, corresponding to the following drug response categories: no response (SPM 1-8), low response (SPM 9), moderate response (SPM 10-11), good response (SPM 12-13), and exceptional response (SPM 14-15). […] Moderate to good drug responses (SPM 10-13) may indicate that a drug has clinical relevance, possibly in combination with other drugs. The sensitivity category was determined from the sensitivity metric and is a measure of overall cell death of a patient's cells in response to endoxifen at six concentrations. […]

For assay [3], the system named is patient-derived tumor organoids (PDTOs), leiomyosarcoma. The experiment in a line: Endoxifen screen in PDTOs: leiomyosarcoma. Also noted: key to Personalization Category: Personalization categories range from High, Good, Moderate, Low, to None; Personalization categories range from High, Good, Moderate, Low, to None; Personalization categories range from High, Good, Moderate, Low, to None; Personalization categories range from High, Good, Moderate, Low, to None; Personalization categories range from High, Good, Moderate, Low, to None; key to Sensitivity Category: Sensitivity categories range from High, Good, Moderate, Low, to None; Sensitivity categories range from High, Good, Moderate, Low, to None; Sensitivity categories range from High, Good, Moderate, Low, to None; Sensitivity categories range from High, Good, Moderate, Low, to None; Sensitivity categories range from High, Good, Moderate, Low, to None; AUC: unit not given beside the values. Conditions: each line one patient sample. How it is done: as §1, §2, §5, §6, §4

Assay [4] has as its system patient-derived tumor organoids (PDTOs), sarcoma. The experiment in a line: Endoxifen screen in PDTOs: sarcoma. Also noted: key to Personalization Category: Personalization categories range from High, Good, Moderate, Low, to None; Personalization categories range from High, Good, Moderate, Low, to None; Personalization categories range from High, Good, Moderate, Low, to None; Personalization categories range from High, Good, Moderate, Low, to None; Personalization categories range from High, Good, Moderate, Low, to None; AUC: unit not given beside the values. The method, then:
as §1
Fresh patient biopsy samples received following surgery were cleaned and purified. Immune cells (e.g., lymphocytes, blood cells), cancer-associated fibroblasts, and other non-tumor cells were removed to establish pure PDTOs for endoxifen testing. […] The PDTOs were treated with increasing concentrations of endoxifen ranging from about 30 nM to about 10 μM, and the drug response was measured using a luminescence readout. A lower luminescence was indicative of a stronger drug response.
as §3
This example describes testing endoxifen efficacy against 17 distinct cancer types in patient-derived tumor organoids (PDTOs). […] For each PDTO sample, the drug response was measured using a luminescent readout over a range of endoxifen concentrations. The drug response was evaluated based on the area under the fitted dose response curve (AUC) and the SPM scoring system. […] The area under the curve was calculated from the normalized curve. […]
The SPM scoring system evaluated whether a PDTO was unresponsive or responsive to endoxifen and the degree of drug response for PDTOs that were responsive to endoxifen. […]

Where [5] appears, read: normalized area under fitted dose response curve.

On to `CC/C(=C(\c1ccc(O)cc1)c1ccc(OCCNC)cc1)c1ccccc1` [Endoxifen, 4-hydroxy-N-desmethyltamoxifen], for which the “Personalization Category” value in assay [1] (patient 39) is “None”; in assay [2], “None and Low”; in assay [3] it was “None”; in assay [4] (patient 21), “None”. Further, the “Sensitivity Category” value in assay [1] (patient 39) is “None”; in assay [2] it was “None and Low”; in assay [3] it was “None”. Further, the AUC in assay [1] (patient 39, normalized area under fitted dose response curve) was 1.0102; in assay [2] (setting [5]) it was 0.9497 and 0.9011 and 0.9669; in assay [3] (setting [5]), 0.9719 and 1.0448 and 1.0001; in assay [4] (patient 21, normalized area under fitted dose response curve), 0.9995. In addition, the “SPM Score” value is 1 in assay [1] (patient 39, score range 1-15); 1 and 9 and 3 in assay [2] (score range 1-15); 1 in assay [3] (score range 1-15); 1 in assay [4] (patient 21, score range 1-15). Besides, the IC50 in assay [2] (Homo sapiens) stood at 8.7 µM; in assay [2], 9.19 µM. The “Response Category” value in assay [2] is “None (no response (SPM 1-8)); also recorded: Low (low response (SPM 9))”; in assay [3] it was “None (no response (SPM 1-8))”.
